Reference: patent US10485741B2 (WONKWANG UNIVERSITY CENTER FOR INDUSTRY-ACADEMY COOPERATION, priority 2016, dated 2019)
Values after ≈ are worked out from the molar mass of the structure shown. Where two headings read alike, the source gives them in different places.

What was measured:
Format in all cases: cell-based, Streptococcus mutans
S. mutans [1] = test: Agar diffusion test of fluoride varnish of hydrogenated rosin mixed with antibacterial substance, inhibition zone; details: for Inhibition zone, Fluoride varnish + 1 mM substance / Inhibition zone, Fluoride varnish + 10 mM substance: substance mixed 1:1 with fluoride varnish, positive control = ampicillin alone; for antibacterial activities of fluoride varnish mixed with substance compared with a fluoride varnish alone (in words): 1 mM or 10 mM antibacterial substance
Description: Antibacterial substance powders were dissolved in DMSO to 100 mM and stored. It was diluted with DMSO to prepare 20 mM and 2 mM antibacterial substances.
Specifically, S. mutans was primarily cultured in a BHI medium in a CO2 incubator at 37°C. for 24 hours. Then, 200 μL of a suspension of S. mutans was inoculated into BHI and secondarily cultured for 6 hours. Then, the OD value was measured with Eppendorf Biophotometer plus. After the measurement, the bacteria were mixed with top agar and then inoculated into the agar medium containing base agar. After top agar hardened, a 6 mm diameter paper disc was placed on the agar medium.
(§1) 5 μL of each of 0.1 mM, 1 mM and 10 mM antibacterial substances was dropped on the paper disc. 10 μL/ml of ampicilin was used as the positive control, and PBS was used as the negative control. After culturing in a CO2 incubator at 37°C for 24 hours, the diameter of the S. mutans inhibition zone formed around the paper disc was measured in two perpendicular locations and the average was calculated to evaluate the antibacterial activities. The average was expressed in mm.
Fluoride varnishes mixed with an antibacterial substance which comprise an antibacterial substance tested in Test Example 1 were prepared according to the method described in Example 2 and the antibacterial activities thereof were tested.

S. mutans (ATCC 25175) = test: Agar diffusion test (paper disc), antibacterial substance alone; details: for diameter of the S. mutans inhibition zone, 0.1 mM antibacterial substance alone: 5 μL of 0.1 mM substance on 6 mm paper disc; for diameter of the S. mutans inhibition zone, 0.1 mM antibacterial substance alone / diameter of the S. mutans inhibition zone, 1 mM antibacterial substance alone / diameter of the S. mutans inhibition zone, 10 mM antibacterial substance alone: 24 h, positive control 10 μL/ml ampicillin; for diameter of the S. mutans inhibition zone, 1 mM antibacterial substance alone: 5 μL of 1 mM substance on 6 mm paper disc; for diameter of the S. mutans inhibition zone, 10 mM antibacterial substance alone: 5 μL of 10 mM substance on 6 mm paper disc; for antibacterial activities against S. mutans (in words): screening from a total 100 substances
Description: as §1, with “Specifically, S. mutans was primarily cultured in a BHI medium in a CO2 incubator at 37°C. for 24 hours. Then, 200 μL of a suspension of S. mutans was inoculated into BHI and secondarily cultured for 6 hours. Then, the OD value was measured with Eppendorf Biophotometer plus. After the measurement, the bacteria were mixed with top agar and then inoculated into the agar medium containing base agar. After top agar hardened, a 6 mm diameter paper disc was placed on the agar medium. 5” for “5”

S. mutans [2] = test: Formation of Semi-inhibition zone by fluoride varnish mixed with antibacterial substance (agar diffusion); details: for Semi-inhibition zone, Fluoride varnish + 1 mM substance / Semi-inhibition zone, Fluoride varnish + 10 mM substance: Table 4, substance mixed 1:1 with fluoride varnish, positive control = ampicillin alone
Excerpt: In addition, the formation of Semi-inhibition zone was investigated according to the same method as in Test Example 1.

S. mutans [3] = test: Minimum inhibitory concentration (MIC) and minimal bactericidal concentration (MBC), 96-well BHI broth dilution; details: for MIC: BHI broth, 24-hour culture, absorbance at 600 nm
Description: The minimum inhibitory concentration and minimal bactericidal concentration of antibacterial substances were identified using S. mutans, which is related to dental caries, as the strain. Specifically, in order to measure MIC, a 96-well plate containing 100 μL of BHI broth per well was used. Antibacterial substances were used at a concentration of 16 mM, and the substance No. 1-2 of Example 1 was used at a concentration of 1 mM. The antibacterial materials were transferred to the first well and diluted stepwise. The substance No. 1-2 was diluted to 1 mM to 0.004375 mM and the other antibacterial substances were diluted to 16 mM to 0.007 mM. S. mutans was activated using BHI broth as the medium and cultured in a CO2 incubator at 37° C. for 24 hours. Then, the bacteria were cultured for another 6 hours, and then 100 μL thereof was added to each well of the 96-well plate. After 24-hour culture, the minimum inhibitory concentration was determined by measuring the absorbance at 600 nm with Enzyme-linked immuno-assay reader (Spectra MAX250, Molecular Devices Co.).

[4] = listed as xanthorrhizol (Santa Cruz)
[5] = listed as xanthorrhizol (BioAlpha)
[6] = Streptococcus mutans, 24 h, read-out: MIC
[7] = Streptococcus mutans, read-out: MBC

Row | SMILES | Inhibition zone, Fluoride varnish + 1 mM substance (S. mutans [1]; primary test (Table 2)) [mm] | Inhibition zone, Fluoride varnish + 10 mM substance (S. mutans [1]; primary test (Table 2)) [mm] | Inhibition zone, Fluoride varnish + 1 mM substance (S. mutans [1]; secondary test (Table 3)) [mm] | Inhibition zone, Fluoride varnish + 10 mM substance (S. mutans [1]; secondary test (Table 3)) [mm] | diameter of the S. mutans inhibition zone, 0.1 mM antibacterial substance alone (S. mutans (ATCC 25175)) [mm] | diameter of the S. mutans inhibition zone, 1 mM antibacterial substance alone (S. mutans (ATCC 25175)) [mm] | diameter of the S. mutans inhibition zone, 10 mM antibacterial substance alone (S. mutans (ATCC 25175)) [mm] | Semi-inhibition zone, Fluoride varnish + 1 mM substance (S. mutans [2]) [mm] | Semi-inhibition zone, Fluoride varnish + 10 mM substance (S. mutans [2]) [mm] | MIC, rank (in words) (S. mutans [3]) | antibacterial activities of fluoride varnish mixed with substance compared with a fluoride varnish alone (in words) (S. mutans [1]; primary test) | antibacterial activities against S. mutans (in words) (S. mutans (ATCC 25175)) | MIC (S. mutans [3]; [6]) [µM] | MBC (S. mutans [3]; [7]) [µM] | other results
1 | CC(C)=CCC[C@@H](C)c1ccc(C)c(O)c1 [No. 1-1, xanthorrhizol] | 9.14 | 10.62 | 8.64 | 10.28 | 6 | 6 | 7.75 | 25.515 | 25.725 | – | – | – | – | – | MIC (S. mutans [3]; [4]): 62 µM (≈ 13.5 µg/mL); MBC (S. mutans [3]; [4]): 125 µM (≈ 27.3 µg/mL)
2 | CC(C)=CCC[C@@H](C)c1ccc(C)c(O)c1 [No. 1-2, xanthorrhizol] | 8.58 | – | 9.65 | – | 8.26 | 10.3 | – | 12.265 | – | lowest MIC | – | – | – | – | MIC (S. mutans [3]; [5]): 15 µM (≈ 3.28 µg/mL); MBC (S. mutans [3]; [5]): 62 µM (≈ 13.5 µg/mL)
3 | C=C[C@@](C)(/C=C/c1ccc(O)cc1)CCC=C(C)C [No. 2, Bakuchiol] | 9.55 | 9.82 | 8.53 | 10.10 | 6 | 8.9 | 14.5 | 22.87 | 26.705 | lowest MIC | significant antibacterial activities | significant antibacterial activities | 15 (≈ 3.85 µg/mL) | 31 (≈ 7.95 µg/mL) | MBC, rank (in words) (S. mutans [3]): lowest MBC
4 | CC(C)=CCc1cc(C(=O)/C=C/c2ccc(O)cc2)c(O)cc1O [No. 3, Bavachalcone] | 11.31 | 15.35 | 12.79 | 13.17 | 9.63 | 14.51 | 18.87 | 34.025 | 20.74 | lowest MIC | significant antibacterial activities | significant antibacterial activities | 15 (≈ 4.87 µg/mL) | 62 (≈ 20.1 µg/mL) | increase of antibacterial activities of fluoride varnish mixed with substance (S. mutans [1]; primary test, compared with a fluoride varnish alone): ≥ 70%; antibacterial activities of fluoride varnish mixed with substance (in words) (S. mutans [1]; secondary test): remarkable antibacterial activities; activities against S. mutans (in words) (S. mutans (ATCC 25175); 0.1 mM antibacterial substance): significant activities; activities against S. mutans, rank (in words) (S. mutans (ATCC 25175); 1 mM antibacterial substance): highest activities; activities against S. mutans, rank (in words) (S. mutans (ATCC 25175); 10 mM antibacterial substance): highest activities; formation of Semi-inhibition zone (in words) (S. mutans [2]): largest Semi-inhibition zone
